In this assay the target is T1, TPM3-TRKA fusion protein (Homo sapiens, UniProt P04629).
T1 construct: The resulted chimeric proteins always retain the kinase domain of TRK proteins; TPM3 (fusion partner, N-terminal part of tropomyosin alpha-3, P06753); endogenous in cells; host or cells: KM12 colon cancer cells; the other entry of the earlier key: TPM3 (P06753, Tropomyosin alpha-3 chain)
Put plainly: TPM3-TRKA fusion protein levels in KM12 cells (Western blot). It counts as cell-based. Conditions: read-out: Degradation (at 10 nM). Put shortly:
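KM12 colon cancer cells were treated with DMSO or compounds at 0.1–100 nM, 0.4–30 nM or other stated concentrations for 4, 8–16 or 16 h. RIPA lysates were BCA-normalized and resolved by SDS-PAGE. TPM3-TRKA was detected by chemiluminescent Western blot, with bands quantified by densitometry.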
Background: Immunoblotting shows a protein as a band on a membrane.

Setting [1] is: 16 h, TPM3-TRKA degradation in KM12 cells at 10 nM compound, category of percentage degradation.

Read-outs that look alike come from different tables or passages of the source.

T1 sequence (P04629 with tags, fused parts or gaps): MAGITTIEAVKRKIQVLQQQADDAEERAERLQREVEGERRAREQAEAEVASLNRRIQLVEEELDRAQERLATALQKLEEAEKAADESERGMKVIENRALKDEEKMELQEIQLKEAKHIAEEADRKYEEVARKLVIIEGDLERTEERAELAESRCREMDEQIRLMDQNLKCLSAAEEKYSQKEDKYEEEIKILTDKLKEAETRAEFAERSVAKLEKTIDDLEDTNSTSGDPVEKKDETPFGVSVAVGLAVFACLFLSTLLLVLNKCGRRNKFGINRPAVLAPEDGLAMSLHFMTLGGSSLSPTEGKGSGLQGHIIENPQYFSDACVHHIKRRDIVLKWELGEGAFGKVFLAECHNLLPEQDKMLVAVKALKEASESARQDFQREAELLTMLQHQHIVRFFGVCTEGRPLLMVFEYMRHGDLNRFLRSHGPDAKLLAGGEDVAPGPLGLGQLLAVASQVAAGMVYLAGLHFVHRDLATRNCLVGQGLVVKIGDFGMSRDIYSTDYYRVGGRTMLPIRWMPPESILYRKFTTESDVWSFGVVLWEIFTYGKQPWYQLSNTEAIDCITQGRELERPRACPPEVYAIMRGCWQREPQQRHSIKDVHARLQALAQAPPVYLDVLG

On to `O=C(CN1CCN(c2ccc(C(=O)Nc3n[nH]c4ccc(Cc5cc(F)cc(F)c5)cc34)c(NC3CCOCC3)c2)CC1)NCCOCCNc1ccc2c(c1)C(=O)N(C1CCC(=O)NC1=O)C2=O` (stereo not drawn) [TR-161, N-(5-(3,5-Difluorobenzyl)-1H-indazol-3-yl)-4-(4-(2-((2-(2-((2-(2,6-dioxopiperidin-3-yl)-1,3-dioxoisoindolin-5-yl)amino)ethoxy)ethyl)amino)-2-oxoethyl)piperazin-1-yl)-2-((tetrahydro-2H-pyran-4-yl)amino)benzamide], for which the percent degradation of TPM3-TRKA protein at 0.01 µM under setting [1] is over 80%.
On the same count and under the same terms, in the case of `O=C(CN1CCN(c2ccc(C(=O)Nc3n[nH]c4ccc(Cc5cc(F)cc(F)c5)cc34)c(NC3CCOCC3)c2)CC1)NCCOCCOCCNc1ccc2c(c1)C(=O)N(C1CCC(=O)NC1=O)C2=O` (stereo not drawn) [TR-162, N-(5-(3,5-Difluorobenzyl)-1H-indazol-3-yl)-4-(4-(2-((2-(2-(2-((2-(2,6-dioxopiperidin-3-yl)-1,3-dioxoisoindolin-5-yl)amino)ethoxy)ethoxy)ethyl)amino)-2-oxocthyl)piperazin-1-yl)-2-((tetrahydro-2H-pyran-4-yl)amino)benzamide] it was over 80%; in that of `O=C(CN1CCN(c2ccc(C(=O)Nc3n[nH]c4ccc(Cc5cc(F)cc(F)c5)cc34)c(NC3CCOCC3)c2)CC1)NCCOCCOCCOCCNc1ccc2c(c1)C(=O)N(C1CCC(=O)NC1=O)C2=O` (stereo not drawn) [TR-163, N—(S-(3,5-Difluorobenzyl)-1H-indazol-3-yl)-4-(4-(14-((2-(2,6-dioxopiperidin-3-yl)-1,3-dioxoisoindolin-5-yl)amino)-2-oxo-6,9,12-trioxa-3-azatetradecyl)piperazin-1-yl)-2˜ ((tetrahydro-2H-pyran-4-yl)amino)benzamide], over 80%.
On the same count and under the same terms, the result for `O=C(CN1CCN(c2ccc(C(=O)Nc3n[nH]c4ccc(Cc5cc(F)cc(F)c5)cc34)c(NC3CCOCC3)c2)CC1)NCCCCCNc1ccc2c(c1)C(=O)N(C1CCC(=O)NC1=O)C2=O` (stereo not drawn) [TR-164, N-(5-(3,5-Difluorobenzyl)-1H-indazol-3-yl)-4-(4-(2-((5-((2-(2,6-dioxopiperidin-3-yl)-1,3-dioxoisoindolin-5-yl)amino)pentyl)amino)-2-oxoethyl)piperazin-1-yl)-2-((tetrahydro-2H-pyran-4-yl)amino)benzamide] reads over 80%; that for `O=C(CN1CCN(c2ccc(C(=O)Nc3n[nH]c4ccc(Cc5cc(F)cc(F)c5)cc34)c(NC3CCOCC3)c2)CC1)NCCNc1ccc2c(c1)C(=O)N(C1CCC(=O)NC1=O)C2=O` (stereo not drawn) [TR-165, N-(5-(3,5-Difluorobenzyl)-1H-indazol-3-yl)-4-(4-(2-((2-((2-(2,6-dioxopiperidin-3-yl)-1,3-dioxoisoindolin-5-yl)amino)ethyl)amino)-2-oxoethyl)piperazin-1-yl)-2-((tetrahydro-2H-pyran-4-yl)amino)benzamide], over 80%; that for `O=C(CN1CCN(c2ccc(C(=O)Nc3n[nH]c4ccc(Cc5cc(F)cc(F)c5)cc34)c(NC3CCOCC3)c2)CC1)NCCOCCOCCOCCOCCOCCNc1ccc2c(c1)C(=O)N(C1CCC(=O)NC1=O)C2=O` (stereo not drawn) [TR-166, N-(5-(3,5-Difluorobenzyl)-1H-indazol-3-yl)-4-(4-(20-((2-(2,6-dioxopiperidin-3-yl)-1,3-dioxoisoindolin-5-yl)amino)-2-oxo-6,9,12,15,18-pentaoxa-3-azaicosyl)piperazin-1-yl)-2-((tetrahydro-28-pyran-4-yl)amino)benzamide], over 80%.
With `O=C(CN1CCN(c2ccc(C(=O)Nc3n[nH]c4ccc(Cc5cc(F)cc(F)c5)cc34)c(NC3CCOCC3)c2)CC1)NCCCNc1ccc2c(c1)C(=O)N(C1CCC(=O)NC1=O)C2=O` (stereo not drawn) [TR-167, N-(5-(3,5-Difluorobenzyl)-1H-indazol-3-yl)-4-(4-(2-((3-((2-(2,6-dioxopiperidin-3-yl)-1,3-dioxoisoindolin-5-yl)amino)propyl)amino)-2-oxocthyl)piperazin-1-yl)-2-((tetrahydro-2H-pyran-4-yl)amino)benzamide], the percent degradation of TPM3-TRKA protein at 0.01 µM under setting [1] was over 80%.
The same measure, in the same setting: in the case of `O=C1CCC(N2C(=O)c3ccc(NCCCC(=O)N4CCN(c5cccc(-c6cnc7ccc(N8CCC[C@@H]8c8cccc(F)c8)nn67)n5)CC4)cc3C2=O)C(=O)N1` (stereo partly drawn) [TR-168, 2-(2,6-Dioxopiperidin-3-yl)-5-((4-(4-(6-(6-((R)-2-(3-fluorophenyl)pyrrolidin-1-yl)imidazo[1,2-b]pyridazin-3-yl)pyridin-2-yl)piperazin-1-yl)-4-oxobutyl)amino) isoindoline-1,3-dione] it was over 80%; in that of `O=C1CCC(N2C(=O)c3ccc(NCCCC(=O)N4CCN(c5ccc(C(=O)Nc6n[nH]c7ccc(Cc8cc(F)cc(F)c8)cc67)c(NC6CCOCC6)c5)CC4)cc3C2=O)C(=O)N1` (stereo not drawn) [TR-169, N-(5-(3,5-Difluorobenzyl)-1H-indazol-3-yl)-4-(4-(4-((2-(2,6-dioxopiperidin-3-yl)-1,3-dioxoisoindolin-S-yl)amino)butanoyl)piperazin-1-yl)-2-((tetrahydro-2/-pyran-4-yl)amino)benzamide], over 80%; in that of `O=C1CCC(N2C(=O)c3ccc(NCCCN4CCN(c5cccc(-c6cnc7ccc(N8CCC[C@@H]8c8cccc(F)c8)nn67)n5)CC4)cc3C2=O)C(=O)N1` (stereo partly drawn) [TR-171, 2˜ (2,6-Dioxopiperidin-3-yl)-5-((3-(4-(6-(6-((R)-2-(3-fluorophenyl)pyrrolidin-1-yl)imidazo[1,2-b]pyridazin-3-yl)pyridin-2-yl)piperazin-1-yl)propyl)amino) isoindoline-1,3-dione], over 80%.
With `O=C1CCC(N2C(=O)c3ccc(CCCN4CCN(c5cccc(-c6cnc7ccc(N8CCC[C@@H]8c8cccc(F)c8)nn67)n5)CC4)cc3C2=O)C(=O)N1` (stereo partly drawn) [TR-172, 2-(2,6-dioxopiperidin-3-yl)-5-(3-(4-(6-(6-((R)-2˜ (3-fluorophenyl)pyrrolidin-1-yl)imidazo[1,2-b]pyridazin-3-yl)pyridin-2-yl)piperazin-1-yl)propyl)isoindoline-1,3-dione], for the setting “KM12, 16 h”, the percent degradation of TPM3-TRKA protein at 0.01 µM is over 80%.
`O=C1CCC(N2C(=O)c3ccc(OCCN4CCN(c5cccc(-c6cnc7ccc(N8CCC[C@@H]8c8cccc(F)c8)nn67)n5)CC4)cc3C2=O)C(=O)N1` (stereo partly drawn) [TR-173, 2˜ (2,6-dioxopiperidin-3-yl)-5-(2-(4-(6-(6-((R)-2-(3-fluorophenyl)pyrrolidin-1-yl)imidazo[1,2-b]pyridazin-3-yl)pyridin-2-yl)piperazin-1-yl)ethoxy) isoindoline-1,3-dione]: under “KM12, 16 h”, the percent degradation of TPM3-TRKA protein at 0.01 µM is over 80%.
Regarding `O=C1CCC(N2C(=O)c3ccc(NCCOCCN4CCN(c5cccc(-c6cnc7ccc(N8CCC[C@@H]8c8cccc(F)c8)nn67)n5)CC4)cc3C2=O)C(=O)N1` (stereo partly drawn) [TR-176, 2-(2,6-Dioxopiperidin-3-yl)-5-((2-(2-(4-(6-(6-((R)-2-(3-fluorophenyl)pyrrolidin-1-yl)imidazo[1,2-b]pyridazin-3-yl)pyridin-2-yl)piperazin-1-yl)ethoxy)ethyl)amino) isoindoline-1,3-dione], the percent degradation of TPM3-TRKA protein at 0.01 µM under setting [1] was over 80%.
In the case of `O=C1CCC(N2C(=O)c3ccc(NCCOCCOCCN4CCN(c5cccc(-c6cnc7ccc(N8CCC[C@H]8c8cccc(F)c8)nn67)n5)CC4)cc3C2=O)C(=O)N1` (stereo partly drawn) [TR-177, 2-(2,6-Dioxopiperidin-3-yl)-5-((2-(2-(2-(4-(6-(6-((S)-2-(3-fluorophenyl)pyrrolidin-1-yl)imidazo[1,2-b]pyridazin-3-yl)pyridin-2-yl)piperazin-1-yl)ethoxy)ethoxy)ethyl)amino) isoindoline-1,3-dione], the percent degradation of TPM3-TRKA protein at 0.01 µM under setting [1] is over 80%.
Take `O=C1CCC(N2C(=O)c3ccc(N4CCC(N5CCN(c6cccc(-c7cnc8ccc(N9CCC[C@@H]9c9cccc(F)c9)nn78)n6)CC5)CC4)cc3C2=O)C(=O)N1` (stereo partly drawn) [TR-182, 2-(2,6-dioxopiperidin-3-yl)-5-(4-(4-(6-(6-((R)-2-(3-fluorophenyl)pyrrolidin-1-yl)imidazo[1,2-b]pyridazin-3-yl)pyridin-2-yl)piperazin-1-yl)piperidin-1-yl)isoindoline-1,3-dione]: where the note is “KM12, 16 h”, the percent degradation of TPM3-TRKA protein at 0.01 µM is over 80%.
Still for that read-out and setting: the result for `O=C1CCC(N2C(=O)c3ccc(N4CC(N5CCN(c6cccc(-c7cnc8ccc(N9CCC[C@@H]9c9cccc(F)c9)nn78)n6)CC5)C4)cc3C2=O)C(=O)N1` (stereo partly drawn) [TR-184, 2-(2,6-dioxopiperidin-3-yl)-5-(3-(4-(6-(6-((R)-2-(3-fluorophenyl)pyrrolidin-1-yl)imidazo[1,2-b]pyridazin-3-yl)pyridin-2-yl)piperazin-1-yl)azetidin-1-yl)isoindoline-1,3-dione] reads over 80%.
On to `O=C1CCC(N2Cc3cc(CCCN4CCN(c5cccc(-c6cnc7ccc(N8CCC[C@@H]8c8cccc(F)c8)nn67)n5)CC4)ccc3C2=O)C(=O)N1` (stereo partly drawn) [TR-186, 3-(5-(3-(4-(6-(6-((R)-2-(3-fluorophenyl)pyrrolidin-1-yl)imidazo[1,2-b]pyridazin-3-yl)pyridin-2-yl)piperazin-1-yl)propyl)-1-oxoisoindolin-2-yl)piperidine-2,6-dione], for which the percent degradation of TPM3-TRKA protein at 0.01 µM under setting [1] is over 80%.
The same measure, in the same setting: in the case of `O=C1CCC(N2Cc3cc(C#CCN4CCN(c5cccc(-c6cnc7ccc(N8CCC[C@@H]8c8cccc(F)c8)nn67)n5)CC4)ccc3C2=O)C(=O)N1` (stereo partly drawn) [TR-188, 3-(5-(3-(4-(6-(6-((R)-2-(3-Fluorophenyl)pyrrolidin-1-yl)imidazo[1,2-b]pyridazin-3-yl)pyridin-2-yl)piperazin-1-yl)prop-1-yn-1-yl)-1-oxoisoindolin-2-yl)piperidine-2,6-dione] it was over 80%.

These data come from patent US12410171B2, “Tropomyosin receptor kinase (TRK) degradation compounds and methods of use” (Cullgen (Shanghai), Inc., priority 2020, dated 2025).
